Data: patent US20260060910A1, “COMPOSITION FOR ACTIVATING EXTERNAL BARRIER” (Yuki Gosei Kogyo Co., Ltd., priority 2024, published 2026)

System: miRNA contained in exosomes secreted from C2C12 cells
Conditions: exosomes from β-alanine-treated C2C12 cells vs control; microarray; FIG. 4
Method: In this example, miRNAs in exosomes were analyzed by microarray.
The exosome solution purified in Example 2 was used for microarray analysis. The microarray experiment was outsourced to Kamakura Techno Science (Kanagawa, Japan). Based on the data obtained, samples with a ratio of 1.5 or more compared to the control and one of the signal values of two samples exceeding 100 were extracted as miRNAs with altered transcription levels.

NCCC(=O)O [β-alanine]
number of miRNAs decreased: 14
number of miRNAs increased: six
